Experimental findings from publication PMC5218480 (PLoS ONE, 2017) are described below.

The experiment concerns MV-4-11 cells. The experiment is described as follows: Gene expression microarray analysis (Affymetrix PrimeView) and GSEA. To be noted: ProbeSet 11743567_s_at; LIST B. Also on record: RFU PODN (11730768_x_at) / Fold change /veh PODN (11730768_x_at) / RFU LINC00158 (11744669_a_at) / Fold change /veh LINC00158 (11744669_a_at) / RFU DUSP10 (11751237_a_at) / Fold change /veh DUSP10 (11751237_a_at) / RFU ID3 (11757404_x_at) / Fold change /veh ID3 (11757404_x_at) / RFU PLEKHG5 (11737974_s_at) / Fold change /veh PLEKHG5 (11737974_s_at) / RFU LRRC4B (11730491_at) / Fold change /veh LRRC4B (11730491_at) / RFU GIMAP4 (11747438_a_at) / Fold change /veh GIMAP4 (11747438_a_at) / RFU KRT8 (11758183_x_at) / Fold change /veh KRT8 (11758183_x_at) / RFU CNN1 (11734310_a_at) / Fold change /veh CNN1 (11734310_a_at) / RFU VPS37D (11726825_at) / Fold change /veh VPS37D (11726825_at) / RFU C10orf10 (11716522_x_at) / Fold change /veh C10orf10 (11716522_x_at) / RFU KIR2DL2 /// KIR2DL4 /// KIR2DL5A /// KIR2DL5B /// KIR2DS1 /// KIR2DS2 /// KIR2DS3 /// KIR2DS4 /// KIR3DL3 /// KIR3DL3 /// KIR3DS1 (11738374_at) / Fold change /veh KIR2DL2 /// KIR2DL4 /// KIR2DL5A /// KIR2DL5B /// KIR2DS1 /// KIR2DS2 /// KIR2DS3 /// KIR2DS4 /// KIR3DL3 /// KIR3DL3 /// KIR3DS1 (11738374_at) / RFU C1QL1 (11718748_at) / Fold change /veh C1QL1 (11718748_at) / RFU TMPRSS4 (11747572_a_at) / Fold change /veh TMPRSS4 (11747572_a_at) / RFU HAMP (11756126_x_at) / Fold change /veh HAMP (11756126_x_at) / RFU RNFT2 (11725882_a_at) / Fold change /veh RNFT2 (11725882_a_at) / RFU NR4A2 (11747474_a_at) / Fold change /veh NR4A2 (11747474_a_at) / RFU ABCC12 (11746883_a_at) / Fold change /veh ABCC12 (11746883_a_at) / RFU TMEM136 (11760407_x_at) / Fold change /veh TMEM136 (11760407_x_at) / RFU CLDN22 /// WWC2 (11732394_at) / Fold change /veh CLDN22 /// WWC2 (11732394_at) / RFU HLA-DPB1 (11760878_x_at) / Fold change /veh HLA-DPB1 (11760878_x_at) / RFU SPINT1 (11716480_a_at) / Fold change /veh SPINT1 (11716480_a_at) / RFU GAP43 (11754022_s_at) / Fold change /veh GAP43 (11754022_s_at) / RFU A4GNT (11735810_at) / Fold change /veh A4GNT (11735810_at) / RFU PRB3 (11715151_x_at) / Fold change /veh PRB3 (11715151_x_at) / RFU TUBB4B (11761932_at) / Fold change /veh TUBB4B (11761932_at) / RFU CAPN14 (11732068_a_at) / Fold change /veh CAPN14 (11732068_a_at) / RFU TMCC2 (11721928_a_at) / Fold change /veh TMCC2 (11721928_a_at) / RFU IRGQ (11745062_a_at) / Fold change /veh IRGQ (11745062_a_at) / RFU FAM174B (11720279_a_at) / Fold change /veh FAM174B (11720279_a_at) / RFU TMPRSS4 (11748680_a_at) / Fold change /veh TMPRSS4 (11748680_a_at) / RFU FAM212B (11763350_a_at) / Fold change /veh FAM212B (11763350_a_at) / RFU PLEKHG5 (11743358_a_at) / Fold change /veh PLEKHG5 (11743358_a_at) / RFU ZSCAN30 (11745921_a_at) / Fold change /veh ZSCAN30 (11745921_a_at) / RFU CMKLR1 (11741424_a_at) / Fold change /veh CMKLR1 (11741424_a_at) / RFU LOC101060620 /// MAPK8IP1 (11723275_at) / Fold change /veh LOC101060620 /// MAPK8IP1 (11723275_at) / RFU SPTSSB (11747773_x_at) / Fold change /veh SPTSSB (11747773_x_at) / RFU PRSS12 (11739890_at) / Fold change /veh PRSS12 (11739890_at) / RFU BIN1 (11741810_x_at) / Fold change /veh BIN1 (11741810_x_at) / RFU WNT11 (11732464_a_at) / Fold change /veh WNT11 (11732464_a_at) / RFU C10orf10 (11716521_a_at) / Fold change /veh C10orf10 (11716521_a_at) / RFU C5orf56 (11738089_at) / Fold change /veh C5orf56 (11738089_at) / RFU CYB561 (11721691_x_at) / Fold change /veh CYB561 (11721691_x_at) / RFU ANKRD19P (11752326_a_at) / Fold change /veh ANKRD19P (11752326_a_at) / RFU OR2T12 /// OR2T33 /// OR2T8 (11738714_s_at) / Fold change /veh OR2T12 /// OR2T33 /// OR2T8 (11738714_s_at) / RFU VCAN (11748164_a_at) / Fold change /veh VCAN (11748164_a_at) / RFU JSRP1 (11732532_at) / Fold change /veh JSRP1 (11732532_at) / RFU KRTAP10-11 (11738290_x_at) / Fold change /veh KRTAP10-11 (11738290_x_at) / RFU MYO3A (11730013_a_at) / Fold change /veh MYO3A (11730013_a_at) / RFU EBF3 (11725865_a_at) / Fold change /veh EBF3 (11725865_a_at) / RFU CAMK2N1 (11719241_x_at) / Fold change /veh CAMK2N1 (11719241_x_at) / RFU C5orf56 (11738088_a_at) / Fold change /veh C5orf56 (11738088_a_at) / RFU OLFML3 (11715873_a_at) / Fold change /veh OLFML3 (11715873_a_at) / RFU LOC100653217 /// NTM (11731650_a_at) / Fold change /veh LOC100653217 /// NTM (11731650_a_at) / RFU MAPK11 (11762145_a_at) / Fold change /veh MAPK11 (11762145_a_at) / RFU FIZ1 (11724087_x_at) / Fold change /veh FIZ1 (11724087_x_at) / RFU OASL (11726364_x_at) / Fold change /veh OASL (11726364_x_at) / RFU SOX15 (11748057_x_at) / Fold change /veh SOX15 (11748057_x_at) / RFU CD79A (11719716_a_at) / Fold change /veh CD79A (11719716_a_at) / RFU HIST1H1D (11736915_at) / Fold change /veh HIST1H1D (11736915_at) / RFU CASKIN2 (11723855_a_at) / Fold change /veh CASKIN2 (11723855_a_at) / RFU LOC730098 (11760151_x_at) / Fold change /veh LOC730098 (11760151_x_at) / RFU OR4N2 (11742367_at) / Fold change /veh OR4N2 (11742367_at) / RFU PRRT2 (11749266_a_at) / Fold change /veh PRRT2 (11749266_a_at) / RFU SNX32 (11753110_a_at) / Fold change /veh SNX32 (11753110_a_at) / RFU CDHR5 (11726645_a_at) / Fold change /veh CDHR5 (11726645_a_at) / RFU RCAN1 (11760418_a_at) / Fold change /veh RCAN1 (11760418_a_at) / RFU FAM167A (11723789_a_at) / Fold change /veh FAM167A (11723789_a_at) / RFU FAM26E (11764081_at) / Fold change /veh FAM26E (11764081_at) / RFU ISYNA1 (11749810_s_at) / Fold change /veh ISYNA1 (11749810_s_at) / RFU ACY1 (11761880_at) / Fold change /veh ACY1 (11761880_at) / RFU 11764098_at / Fold change /veh 11764098_at / RFU SAMD14 (11745864_x_at) / Fold change /veh SAMD14 (11745864_x_at) / RFU NPB (11741838_a_at) / Fold change /veh NPB (11741838_a_at) / RFU TMPRSS6 (11731388_a_at) / Fold change /veh TMPRSS6 (11731388_a_at) / RFU KRTAP10-2 (11738614_at) / Fold change /veh KRTAP10-2 (11738614_at) / RFU ARHGAP8 /// PRR5-ARHGAP8 (11727945_x_at) / Fold change /veh ARHGAP8 /// PRR5-ARHGAP8 (11727945_x_at) / RFU KRTAP5-7 /// NADSYN1 (11734609_at) / Fold change /veh KRTAP5-7 /// NADSYN1 (11734609_at) / RFU RASL12 (11751679_a_at) / Fold change /veh RASL12 (11751679_a_at) / RFU CDKN2B (11736163_a_at) / Fold change /veh CDKN2B (11736163_a_at) / RFU PRF1 (11729649_at) / Fold change /veh PRF1 (11729649_at) / RFU, ZNF638 /// ZNF638-IT1 / Fold change vs veh, ZNF638 /// ZNF638-IT1 / RFU, PANK3 / Fold change vs veh, PANK3 / RFU, SH3YL1 / Fold change vs veh, SH3YL1 / RFU, ZEB2 / Fold change vs veh, ZEB2 / RFU, NRIP1 / Fold change vs veh, NRIP1 / RFU, PTTG1IP / Fold change vs veh, PTTG1IP / RFU, CAPN2 / Fold change vs veh, CAPN2 / RFU, MED14 / Fold change vs veh, MED14 / RFU, SNORA58 / Fold change vs veh, SNORA58 / RFU, C1orf63 / Fold change vs veh, C1orf63 / RFU, LRRFIP1 / Fold change vs veh, LRRFIP1 / RFU, NDUFAF7 / Fold change vs veh, NDUFAF7 / RFU, SLC12A2 / Fold change vs veh, SLC12A2 / RFU, IBTK / Fold change vs veh, IBTK / RFU, ESF1 / Fold change vs veh, ESF1 / Fold change vs veh, TMEM50B / RFU, TAOK1 / Fold change vs veh, TAOK1 / RFU, ACBD3 / Fold change vs veh, ACBD3 / RFU, TMA16 / Fold change vs veh, TMA16 / RFU, RWDD3 / Fold change vs veh, RWDD3 / RFU, BCAT1 / Fold change vs veh, BCAT1 / RFU, EDEM3 / Fold change vs veh, EDEM3 / RFU, TMEM33 / Fold change vs veh, TMEM33 / RFU, WDR75 / Fold change vs veh, WDR75 / RFU, AHCTF1 / Fold change vs veh, AHCTF1 / RFU, TFRC / Fold change vs veh, TFRC / RFU, ZDHHC17 / Fold change vs veh, ZDHHC17 / RFU, NOM1 / Fold change vs veh, NOM1 / RFU, ARL8B / Fold change vs veh, ARL8B / RFU, ZBTB11 / Fold change vs veh, ZBTB11 / RFU, TAMM41 / Fold change vs veh, TAMM41 / RFU, KIAA1704 /// LOC100996395 / Fold change vs veh, KIAA1704 /// LOC100996395 / RFU, ING1 / Fold change vs veh, ING1 / RFU, TRMT61B / Fold change vs veh, TRMT61B / RFU, FUBP3 / Fold change vs veh, FUBP3 / RFU, TP53 / Fold change vs veh, TP53 / RFU, TNKS2 / Fold change vs veh, TNKS2 / RFU, ZFP14 / Fold change vs veh, ZFP14 / RFU, ACTR2 / Fold change vs veh, ACTR2 / RFU, PPP3R1 / Fold change vs veh, PPP3R1 / RFU, PIK3R1 / Fold change vs veh, PIK3R1 / RFU, HNRNPA1 / Fold change vs veh, HNRNPA1 / RFU, RNF170 / Fold change vs veh, RNF170 / RFU, ZNF28 / Fold change vs veh, ZNF28 / RFU, RNGTT / Fold change vs veh, RNGTT / RFU, OGT / Fold change vs veh, OGT / RFU, BRD1 / Fold change vs veh, BRD1 / RFU, MARS / Fold change vs veh, MARS / RFU, ZNF655 / Fold change vs veh, ZNF655 / RFU, FAHD1 / Fold change vs veh, FAHD1 / RFU, BDP1 / Fold change vs veh, BDP1 / RFU, LRRCC1 / Fold change vs veh, LRRCC1 / RFU, ARID1A / Fold change vs veh, ARID1A / RFU, ZNF146 / Fold change vs veh, ZNF146 / RFU, ZNF330 / Fold change vs veh, ZNF330 / RFU, GPN3 / Fold change vs veh, GPN3 / RFU, C9orf123 / Fold change vs veh, C9orf123 / RFU, N4BP2L2 / Fold change vs veh, N4BP2L2 / RFU, ARFIP1 / Fold change vs veh, ARFIP1 / RFU, FAM179B / Fold change vs veh, FAM179B / RFU, BCL10 / Fold change vs veh, BCL10 / RFU, UHRF1BP1L / Fold change vs veh, UHRF1BP1L / RFU, BET1 / Fold change vs veh, BET1 / RFU, CNOT2 / Fold change vs veh, CNOT2 / RFU, ZNF268 / Fold change vs veh, ZNF268 / Fold change vs veh, ZNF507 / RFU, DGCR2 / Fold change vs veh, DGCR2 / RFU, WDSUB1 / Fold change vs veh, WDSUB1 / Fold change vs veh, HSP90B1 /// MIR3652 / RFU, ADSS / Fold change vs veh, ADSS / RFU, GK / Fold change vs veh, GK / RFU, ZNF148 / Fold change vs veh, ZNF148 / RFU, TAF9 / Fold change vs veh, TAF9 / RFU, SLC1A5 / Fold change vs veh, SLC1A5 / RFU, SLMO2 / Fold change vs veh, SLMO2 / RFU, ABCC4 / Fold change vs veh, ABCC4 / RFU, LOC101060439 /// RAP1B / Fold change vs veh, LOC101060439 /// RAP1B / RFU, RFX7 / Fold change vs veh, RFX7 / RFU, GTPBP10 / Fold change vs veh, GTPBP10 / RFU, CNEP1R1 / Fold change vs veh, CNEP1R1 / RFU, BIVM-ERCC5 /// ERCC5 / Fold change vs veh, BIVM-ERCC5 /// ERCC5 / RFU, ILF3 / Fold change vs veh, ILF3 / RFU 11762660_at / Fold change /veh 11762660_at / RFU VCAN (11757783_s_at) / Fold change /veh VCAN (11757783_s_at) / RFU DDX43 (11728927_at) / Fold change /veh DDX43 (11728927_at) / RFU KRT8 (11758188_x_at) / Fold change /veh KRT8 (11758188_x_at) / RFU NKD1 (11759106_at) / Fold change /veh NKD1 (11759106_at) / RFU SRD5A1 (11742802_a_at) / Fold change /veh SRD5A1 (11742802_a_at) / RFU TPSAB1 /// TPSB2 (11721975_s_at) / Fold change /veh TPSAB1 /// TPSB2 (11721975_s_at) / RFU GSTM3 (11746129_a_at) / Fold change /veh GSTM3 (11746129_a_at) / RFU IL23R (11737362_x_at) / Fold change /veh IL23R (11737362_x_at) / RFU TMEM51 (11727254_a_at) / Fold change /veh TMEM51 (11727254_a_at) / RFU PIWIL2 (11732686_x_at) / Fold change /veh PIWIL2 (11732686_x_at) / RFU ORM1 (11744905_x_at) / Fold change /veh ORM1 (11744905_x_at) / RFU CCDC152 (11743942_at) / Fold change /veh CCDC152 (11743942_at) / RFU ECM1 (11717891_a_at) / Fold change /veh ECM1 (11717891_a_at) / RFU IL23R (11748794_a_at) / Fold change /veh IL23R (11748794_a_at) / RFU TNFAIP8L3 (11732012_x_at) / Fold change /veh TNFAIP8L3 (11732012_x_at) / RFU MBOAT4 (11741988_at) / Fold change /veh MBOAT4 (11741988_at) / RFU 11764193_at / Fold change /veh 11764193_at / RFU TMEM53 (11763286_at) / Fold change /veh TMEM53 (11763286_at) / RFU MAGEB2 (11727129_at) / Fold change /veh MAGEB2 (11727129_at) / RFU TMEM200A (11744735_a_at) / Fold change /veh TMEM200A (11744735_a_at) / RFU CCDC152 (11751479_a_at) / Fold change /veh CCDC152 (11751479_a_at) / RFU FAM211A (11726209_a_at) / Fold change /veh FAM211A (11726209_a_at) / RFU RGS16 (11746705_a_at) / Fold change /veh RGS16 (11746705_a_at) / RFU VCAN (11755009_s_at) / Fold change /veh VCAN (11755009_s_at) / RFU RHOB (11743442_s_at) / Fold change /veh RHOB (11743442_s_at) / RFU RGS16 (11720943_a_at) / Fold change /veh RGS16 (11720943_a_at) / RFU RGS16 (11720944_at) / Fold change /veh RGS16 (11720944_at) / RFU, VPS4B / Fold change vs veh, VPS4B / RFU, CREB1 / Fold change vs veh, CREB1 / RFU, DNAJC13 / Fold change vs veh, DNAJC13 / RFU, GNAQ / Fold change vs veh, GNAQ / RFU, CDK5R1 / Fold change vs veh, CDK5R1 / RFU, ZRANB3 / Fold change vs veh, ZRANB3 / RFU, CUL4A / Fold change vs veh, CUL4A / RFU, CCNY / Fold change vs veh, CCNY / RFU, UFL1 / Fold change vs veh, UFL1 / RFU, COG3 / Fold change vs veh, COG3 / RFU, DIAPH2 / Fold change vs veh, DIAPH2 / RFU, SKA2 / Fold change vs veh, SKA2 / RFU, AFF3 / Fold change vs veh, AFF3 / RFU, LMF1 / Fold change vs veh, LMF1 / RFU, IPO11 / Fold change vs veh, IPO11 / RFU, DFFB / Fold change vs veh, DFFB / RFU, FOXP1 / Fold change vs veh, FOXP1 / RFU, CARD8 / Fold change vs veh, CARD8 / RFU, STRN3 / Fold change vs veh, STRN3 / RFU, ADK / Fold change vs veh, ADK / RFU, RASSF2 / Fold change vs veh, RASSF2 / RFU, WIPF1 / Fold change vs veh, WIPF1 / RFU, LARP1B / Fold change vs veh, LARP1B / RFU, RASA1 / Fold change vs veh, RASA1 / RFU, RB1 / Fold change vs veh, RB1 / RFU, PPFIA1 / Fold change vs veh, PPFIA1 / RFU, MAT2A / Fold change vs veh, MAT2A / RFU, CCT5 / Fold change vs veh, CCT5 / RFU, WDR92 / Fold change vs veh, WDR92 / RFU, CUX1 / Fold change vs veh, CUX1 / RFU, TTC7A / Fold change vs veh, TTC7A / RFU, TMEM135 / Fold change vs veh, TMEM135 / RFU, DEPTOR / Fold change vs veh, DEPTOR / RFU, CPM / Fold change vs veh, CPM / RFU, DNAJB6 / Fold change vs veh, DNAJB6 / RFU, CACNA2D3 / Fold change vs veh, CACNA2D3 / RFU, DTX4 / Fold change vs veh, DTX4 / RFU, TFCP2 / Fold change vs veh, TFCP2 / RFU, GMCL1 /// GMCL1P1 / Fold change vs veh, GMCL1 /// GMCL1P1 / RFU, AEBP2 / Fold change vs veh, AEBP2 / RFU, SNHG1 /// SNORD22 /// SNORD25 /// SNORD26 /// SNORD27 /// SNORD28 /// SNORD29 /// SNORD31 / Fold change vs veh, SNHG1 /// SNORD22 /// SNORD25 /// SNORD26 /// SNORD27 /// SNORD28 /// SNORD29 /// SNORD31 / Fold change (Aza/veh), C12orf56 (ProbeSet 11735607_a_at) / Fold change (ACY-1035/veh), C12orf56 (ProbeSet 11735607_a_at) / Fold change (Aza/veh), FGFR1OP (ProbeSet 11751329_s_at) / Fold change (ACY-1035/veh), FGFR1OP (ProbeSet 11751329_s_at) / Fold change (Aza/veh), VPS36 (ProbeSet 11739960_a_at) / Fold change (ACY-1035/veh), VPS36 (ProbeSet 11739960_a_at) / RFU SYPL1 (11715823_x_at) / Fold change /veh SYPL1 (11715823_x_at) / RFU IGFBP7 (11715501_s_at) / Fold change /veh IGFBP7 (11715501_s_at) / RFU REEP3 (11722064_at) / Fold change /veh REEP3 (11722064_at) / RFU IGLL1 (11728026_x_at) / Fold change /veh IGLL1 (11728026_x_at): dose or concentration left out as unconfirmed. It counts as cell-based, human.

`Nc1ccc(-c2cccs2)cc1NC(=O)c1ccc2c(c1)cc(C1CC1)n2CCN1CCOCC1` [ACY-1035]: the “Fold change vs veh, ACBD3” value was 0.99.
